Data taken from EPA's ToxValDB 9.5 (doi:10.2903/j.efsa.2015.4194).
≈ marks a conversion by molar mass, not a printed value.

Columns and labels:
[1] = test system: Colinus virginianus; conditions: oral
[2] = test system: Rattus norvegicus
[3] = test system: Bibionidae; conditions: chronic/long-term; duration: 28 days
[4] = test system: Lepomis macrochirus; conditions: acute; duration: 96 hours; mortality
[5] = test system: Daphnia magna; conditions: chronic/long-term; duration: 21 days; reproduction
[6] = test system: Oncorhynchus mykiss
[7] = test system: Tagia sp.; conditions: acute; duration: 14 days; mortality
[8] = test system: Apis mellifera; conditions: acute, duration: 48 hours, mortality
[9] = test system: Canidae; conditions: oral, Dog Other

CC1(c2ccc(Oc3ccccc3)cc2)OC(=O)N(Nc2ccccc2)C1=O (centres undefined) [Famoxadone]
LD50 ([1]; acute, mortality): > 2250 mg/kg-day | NOEC ([1]; short-term, diet): 5620 mg/kg-day | LD50 ([2]; acute, mortality): > 5000 mg/kg | NOAEL ([2]; developmental, development): 11.3 mg/kg-day | NOEC [3]: 0.01 mg/L | LC50 [4]: 0.013 mg/L (≈ 0.0347 µM) | NOEC [5]: 0.0037 mg/L | LC50 ([6]; acute, duration: 96 hours, mortality): 0.011 mg/L (≈ 0.0294 µM) | NOEC ([6]; chronic/long-term, duration: 90 days, growth): 0.014 mg/L | LC50 [7]: 470 mg/kg | LD50 ([8]; dermal): > 25 µg/piece | LD50 ([8]; oral, unspecified): > 63 µg/piece | NOAEL ([9]; chronic, duration: 1 years, ophthalmoscopic examination): 1.2 mg/kg-day | NOAEL ([9]; subchronic, duration: 90 days, clinical signs): 10 mg/kg-day
